Reference: paper PMC11869342, “Design and synthesis of novel HDAC6 inhibitor dimer as HDAC6 degrader for cancer treatment by palladium catalysed dimerisation” (Journal of Enzyme Inhibition and Medicinal Chemistry, 2025)

Experiments:
[1] = system: PC-3 cells; assay: Sulforhodamine B (SRB) assay, PC-3; format: cell-based; conditions: Homo sapiens; PC-3 cells, SRB, 48 h; read-out: GI50 con. ± SEM PC-3
Description: (§1) The A549 and PC-3 human lung and prostate cancer cell lines were acquired from the American Type Culture Collection (Rockville, MD). […] The cultures were kept in a 37 °C incubator with 5% CO2. When the adherent cultures reached 80% confluence, they were passaged using 0.05% trypsin-EDTA. PC-3 and A549 cells were seeded into 96-well plates in RPMI medium with 5% (v/v) foetal bovine serum for 24 h. Cells in partial wells were fixed with 10% trichloroacetic acid (TCA) to represent the initial time of compound treatment. The cells were treated with or without the indicated compound for 48 h and then were fixed with 10% TCA. After the washout with ddH2O and air-dried, SRB at 0.4% (w/v) in 1% acetic acid was added for staining. Unbound SRB was washed with 1% acetic acid and SRB-bounded cells were solubilised with 10 mM Tris base. The absorbance was read at a wavelength of 515 nm for the determination of cell growth.

[2] = system: A549 cells; assay: Sulforhodamine B (SRB) assay, A549; format: cell-based; conditions: Homo sapiens; A549 cells, SRB, 48 h; read-out: GI50 con. ± SEM A549
Description: as §1

[3] = system: Ac-α-tubulin; assay: Western blotting of Ac-α-tubulin in PC-3 cells; format: cell-based, human; conditions: 30 μM, 24 h
Description: Figure 3. Western blotting analysis of (a) HDAC6 protein in PC-3 cells treated with various dimer compounds at 30 μM for 24 h, (b) Ac-α-tubulin protein in PC-3 cells treated with various dimer compounds at 30 μM for 24 h, (c) LC-3 I, LC-3 II, and p62 proteins in PC-3 cells treated with various dimer compounds at 30 μM for 24 h, (d) PARP-1 and Caspase-3 proteins in PC-3 cells treated with various dimer compounds at 30 μM for 24 h, (e) p-BUBR1^S670 and p-BUBR1^T680 proteins in PC-3 cells treated with various dimer compounds at 30 μM for 24 h. Glyceraldehyde 3-phosphate dehydrogenase (GAPDH) was used as the loading control.
After compound treatment, the cells were harvested and centrifuged. […] The supernatants quantified by Bio-Rad protein assay kit (Bio-Rad Laboratories, Hercules, CA) were mixed with sample buffer (0.3 M Tris pH6.8, 10% SDS, 50% glycerol, 10% β-mercaptoethanol, and 0.02% bromophenol blue) and heated at 95 °C for 10 min. The protein (30 µg) was separated by electrophoresis in 8% or 12% SDS-PAGE, transferred to PVDF membranes, and detected with specific antibodies (1:1000 dilution for the first and 1:7000 for the second antibodies). The immunoreactive proteins were detected with an enhanced chemiluminescence detection kit (Amersham, Buckinghamshire, UK) and the images were captured by ChemiDoc™ MP System (Bio-Rad Laboratories, Hercules, CA).

[4] = Solubility as observed when conducting assays; format: physicochemical
[5] = molecular target: T1, HDAC6 (Homo sapiens, UniProt Q9UBN7); assay: HDAC enzyme activity assay (Reaction Biology), HDAC6; format: biochemical; design: Full-length recombinant hHDAC 6 was expressed in a baculovirus expression system in SF9 cells; purchased Reaction Biology Corporation (Malvern, PA); host or cells: baculovirus / SF9 insect cells; conditions: full-length recombinant hHDAC 6, RHKKAc substrate 50 μM, 2 h at 30 °C
T1 sequence (Q9UBN7 1-1215): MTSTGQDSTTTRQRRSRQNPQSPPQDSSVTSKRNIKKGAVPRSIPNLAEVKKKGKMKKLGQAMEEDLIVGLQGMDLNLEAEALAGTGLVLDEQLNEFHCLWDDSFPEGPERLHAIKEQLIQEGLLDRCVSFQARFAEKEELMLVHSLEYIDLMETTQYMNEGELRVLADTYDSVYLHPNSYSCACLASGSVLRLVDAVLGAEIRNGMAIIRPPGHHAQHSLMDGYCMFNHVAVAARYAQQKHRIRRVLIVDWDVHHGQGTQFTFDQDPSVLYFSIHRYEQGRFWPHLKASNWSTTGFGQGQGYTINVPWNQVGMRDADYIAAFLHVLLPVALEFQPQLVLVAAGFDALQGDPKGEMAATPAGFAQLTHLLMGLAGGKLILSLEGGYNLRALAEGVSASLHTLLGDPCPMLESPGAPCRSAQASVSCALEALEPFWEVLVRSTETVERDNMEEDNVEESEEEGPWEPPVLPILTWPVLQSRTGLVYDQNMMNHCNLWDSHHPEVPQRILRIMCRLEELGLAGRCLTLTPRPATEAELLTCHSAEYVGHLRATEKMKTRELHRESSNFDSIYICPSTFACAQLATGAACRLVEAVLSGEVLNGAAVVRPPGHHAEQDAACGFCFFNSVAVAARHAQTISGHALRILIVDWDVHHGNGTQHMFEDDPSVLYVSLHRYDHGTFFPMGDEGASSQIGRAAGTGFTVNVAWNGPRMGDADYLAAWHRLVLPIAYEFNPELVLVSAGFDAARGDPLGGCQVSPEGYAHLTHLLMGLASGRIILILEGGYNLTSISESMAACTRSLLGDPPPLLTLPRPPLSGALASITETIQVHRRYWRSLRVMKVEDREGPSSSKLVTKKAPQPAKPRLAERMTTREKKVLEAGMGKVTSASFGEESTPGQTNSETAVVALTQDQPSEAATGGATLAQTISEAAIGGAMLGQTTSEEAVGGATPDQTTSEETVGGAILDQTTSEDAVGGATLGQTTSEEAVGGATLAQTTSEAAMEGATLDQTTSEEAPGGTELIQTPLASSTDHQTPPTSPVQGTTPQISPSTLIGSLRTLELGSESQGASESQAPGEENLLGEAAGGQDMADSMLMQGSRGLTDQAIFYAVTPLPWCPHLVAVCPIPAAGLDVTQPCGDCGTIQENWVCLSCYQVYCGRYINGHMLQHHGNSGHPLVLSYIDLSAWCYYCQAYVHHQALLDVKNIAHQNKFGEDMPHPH
Description: HDAC inhibition assays were performed by Reaction Biology Corporation (Malvern, PA). Full-length recombinant hHDAC 6 was expressed in a baculovirus expression system in SF9 cells. […] The reaction was stopped after 2 h at 30 °C . Trichostatin A was used as an internal control.

For `O=C(NO)c1ccc(Cn2c(=O)n(CCc3ccc(NCCOCCOCCOCCNc4ccc(CCn5c(=O)c6ccccc6n(Cc6ccc(C(=O)NO)cc6)c5=O)cc4)cc3)c(=O)c3ccccc32)cc1` [Compound 6a, 4-({3-[2-(4-{2-[2–(2-{2-[4-(2-{1-[(4-Hydroxamophenyl)methyl]-2,4-dioxoquinazolin-3-yl}ethyl)phenylamino]ethoxy}ethoxy)ethoxy]ethylamino}phenyl)ethyl]-2,4-dioxoquinazolin-1-yl}methyl)benzohydroxamic acid], the GI50 [1] was over 30 µM, the GI50 [2] was over 30 µM and the “Ac-α-tubulin level (Western blot)” value [3] was “unenhanced acetylated α-tubulin”. For the same compound, the “solubility observed when conducting assays” value [4] was “poor solubilities” and the IC50 [5] was over 10 µM.
